Where a name gives a salt, the structure may show the parent alone.
Biological target: T1, human PAR-2 (hPAR-2) receptor (Homo sapiens, UniProt P55085)
T1 construct: expressed in HEK-293 cells in an endogenous manner; endogenous in cells; host or cells: HEK-293
T1 sequence (P55085 26-397): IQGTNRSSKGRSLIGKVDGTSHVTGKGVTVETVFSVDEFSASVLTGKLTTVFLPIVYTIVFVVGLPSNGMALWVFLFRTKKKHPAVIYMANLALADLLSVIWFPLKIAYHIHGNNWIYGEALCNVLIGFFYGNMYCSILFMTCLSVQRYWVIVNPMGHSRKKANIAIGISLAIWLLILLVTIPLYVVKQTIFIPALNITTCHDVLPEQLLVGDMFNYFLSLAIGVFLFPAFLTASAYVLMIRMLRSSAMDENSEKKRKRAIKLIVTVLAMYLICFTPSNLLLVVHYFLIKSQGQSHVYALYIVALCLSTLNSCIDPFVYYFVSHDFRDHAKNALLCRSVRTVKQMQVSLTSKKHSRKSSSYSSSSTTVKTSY
Assay: In vitro human PAR-2 functional antagonist activity using calcium assays
Assay type: cell-based
Details: hPAR-2 endogenously expressed in HEK-293 cells; stimulated by 2-Furoyl-LIGRLO-NH2 peptide; Fluo4AM intracellular calcium, FLIPR Tetra
Summary of the method: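 Antagonism was measured as reduced calcium response to 2-Furoyl-LIGRLO-NH2 (dosed at its 80%-of-maximum concentration), recorded for 5 min. This followed a 10 min compound pre-incubation on Fluo4AM-loaded HEK-293 cells expressing native hPAR-2. Signals were normalised to buffer and agonist-alone controls.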

Row | Compound | IC50 [nM]
1 | Cc1cc(N2CCN(C(=O)c3ccc4c(n3)C(C)(C)CN4c3ccc(Cl)cn3)C(C)(C)C2)nc(C)c1C(=O)O [Example 134, 6-(4-(1-(5-chloropyridin-2-yl)-3,3-dimethyl-2,3-dihydro-1H-pyrrolo[3,2-b]pyridine-5-carbonyl)-3,3-dimethylpiperazin-1-yl)-2,4-dimethylnicotinic acid] | < 500
2 | CC1(C)C(=O)NCCN1C(=O)c1ccc2c(n1)C1(CCC1)CN2c1ccc(Cl)c(F)c1 [Example 126, 4-(1′-(4-chloro-3-fluorophenyl)-1′,2′-dihydrospiro[cyclobutane-1,3′-pyrrolo[3,2-b]pyridine]-5′-carbonyl)-3,3-dimethylpiperazin-2-one] | < 500
3 | CC1(C)CN(C(=O)c2ccc3c(n2)C2(CCCC2)CN3c2ccc(Cl)c(F)c2)CCC1C(=O)O (stereo not shown) [Example 6, 1-(1′-(4-chloro-3-fluorophenyl)-1′,2′-dihydrospiro[cyclopentane-1,3′-pyrrolo[3,2-b]pyridine]-5′-carbonyl)-3,3-dimethylpiperidine-4-carboxylic acid] | 500 to 10000
4 | CC1(C)CN(c2ccc(Cl)c(F)c2)c2ccc(C(=O)N3CCN(c4nc(C(=O)O)cs4)CC3(C)C)nc21 [Example 43, 2-(4-(1-(4-chloro-3-fluorophenyl)-3,3-dimethyl-2,3-dihydro-1H-pyrrolo[3,2-b]pyridine-5-carbonyl)-3,3-dimethylpiperazin-1-yl)thiazole-4-carboxylic acid] | < 500
5 | CN1CCN(C(=O)c2csc(N3CCN(C(=O)c4ccc5c(n4)C(C)(C)CN5c4ccc(Cl)c(F)c4)C(C)(C)C3)n2)CC1 [Example 101, (1-(4-chloro-3-fluorophenyl)-3,3-dimethyl-2,3-dihydro-1H-pyrrolo[3,2-b]pyridin-5-yl)(2,2-dimethyl-4-(4-(4-methylpiperazine-1-carbonyl)thiazol-2-yl)piperazin-1-yl)methanone hydrochloride] | < 500
6 | CC1(C)CN(c2ccc(Cl)c(F)c2)c2ccc(C(=O)N3CCC(N4CCNC4=O)CC3)nc21 [Example 77, 1-(1-(1-(4-chloro-3-fluorophenyl)-3,3-dimethyl-2,3-dihydro-1H-pyrrolo[3,2-b]pyridine-5-carbonyl)piperidin-4-yl)imidazolidin-2-one] | 500 to 10000
7 | O=C(O)CC1CCN(C(=O)c2ccc3c(n2)C2(CCC2)CN3c2ccc(Cl)c(F)c2)CC1 [Example 125, 2-(1-(1′-(4-chloro-3-fluorophenyl)-1′,2′-dihydrospiro[cyclobutane-1,3′-pyrrolo[3,2-b]pyridine]-5′-carbonyl)piperidin-4-yl)acetic acid] | 500 to 10000
8 | Cc1sc(N2CCN(C(=O)c3ccc4c(n3)C(C)(C)CN4c3ccc(Cl)c(F)c3)C(C)(C)C2)nc1C(=O)O [Example 73, 2-(4-(1-(4-chloro-3-fluorophenyl)-3,3-dimethyl-2,3-dihydro-1H-pyrrolo[3,2-b]pyridine-5-carbonyl)-3,3-dimethylpiperazin-1-yl)-5-methylthiazole-4-carboxylic acid hydrochloride] | < 500
9 | CC1(C)CN(c2ccc(Cl)c(F)c2)c2ccc(C(=O)N3CCN(c4nncs4)CC3(C)C)nc21 [Example 67, (1-(4-chloro-3-fluorophenyl)-3,3-dimethyl-2,3-dihydro-1H-pyrrolo[3,2-b]pyridin-5-yl)(2,2-dimethyl-4-(1,3,4-thiadiazol-2-yl)piperazin-1-yl)methanone] | < 500
10 | CC1(C)CN(c2ccc(Cl)c(F)c2)c2ccc(C(=O)N3CC[C@H](c4ccccn4)[C@H](C(=O)O)C3)nc21 (relative stereo) [Example 137, (cis)-1-(1-(4-chloro-3-fluorophenyl)-3,3-dimethyl-2,3-dihydro-1H-pyrrolo[3,2-b]pyridine-5-carbonyl)-4-(pyridin-2-yl)piperidine-3-carboxylic acid] | 500 to 10000
11 | CN(c1ccc(C(=O)O)cn1)C1CCCN(C(=O)c2ccc3c(n2)C(C)(C)CN3c2ccc(Cl)c(F)c2)C1 (stereo not shown) [Example 111, 6-((1-(1-(4-chloro-3-fluorophenyl)-3,3-dimethyl-2,3-dihydro-1H-pyrrolo[3,2-b]pyridine-5-carbonyl)piperidin-3-yl)(methyl)amino)nicotinic acid hydrochloride] | 500 to 10000

The remaining lines, values ahead:

Row | IC50 [nM] | Compound
12 | < 500 | CC1(C)CN(C2CCC(F)(F)CC2)c2ccc(C(=O)N3CCN(c4ccc(CC(=O)O)cn4)CC3(C)C)nc21 [Example 164, 2-(6-(4-(1-(4,4-difluorocyclohexyl)-3,3-dimethyl-2,3-dihydro-1H-pyrrolo[3,2-b]pyridine-5-carbonyl)-3,3-dimethylpiperazin-1-yl)pyridin-3-yl)acetic acid]
13 | < 500 | Cc1cc(N2CCN(C(=O)c3cnc4c(n3)C(C)(C)CN4c3cc(F)c(F)c(F)c3)C(C)(C)C2)nc(C)c1C(=O)O [Example 277, 6-(4-(7,7-dimethyl-5-(3,4,5-trifluorophenyl)-6,7-dihydro-5H-pyrrolo[2,3-b]pyrazine-2-carbonyl)-3,3-dimethylpiperazin-1-yl)-2,4-dimethylnicotinic acid]
14 | 500 to 10000 | COC1c2nc(C(=O)N3CCN(c4ccc(CC(=O)O)cn4)CC3(C)C)ccc2N(c2ccc(Cl)c(F)c2)CC1(C)C (stereo not shown) [Example 253, 2-(6-(4-(5-(4-chloro-3-fluorophenyl)-8-methoxy-7,7-dimethyl-5,6,7,8-tetrahydro-1,5-naphthyridine-2-carbonyl)-3,3-dimethylpiperazin-1-yl)pyridin-3-yl)acetic acid]
15 | < 500 | CC(C(=O)O)c1ccc(N2CCN(C(=O)c3ccc4c(n3)C(C)(C)CN4c3ccc(Cl)c(F)c3)C(C)(C)C2)nc1 (stereo not shown) [Example 160, 2-(6-(4-(1-(4-chloro-3-fluorophenyl)-3,3-dimethyl-2,3-dihydro-1H-pyrrolo[3,2-b]pyridine-5-carbonyl)-3,3-dimethylpiperazin-1-yl)pyridin-3-yl)propanoic acid]
16 | > 10000 | CC1(C)CN(c2ccc(CC(=O)O)cn2)CCN1C(=O)c1cc2n(n1)C(C)(C)CCN2c1ccc(Cl)c(F)c1 [Example 179, 2-(6-(4-(4-(4-chloro-3-fluorophenyl)-7,7-dimethyl-4,5,6,7-tetrahydropyrazolo[1,5-a]pyrimidine-2-carbonyl)-3,3-dimethylpiperazin-1-yl)pyridin-3-yl)acetic acid]
17 | < 500 | Cc1cc(N2CCN(C(=O)c3cnc4c(n3)C(C)(C)CN4c3ccc(F)c(F)c3)C(C)(C)C2)nc(C)c1C(=O)O [Example 181, 6-(4-(5-(3,4-difluorophenyl)-7,7-dimethyl-6,7-dihydro-5H-pyrrolo[2,3-b]pyrazine-2-carbonyl)-3,3-dimethylpiperazin-1-yl)-2,4-dimethylnicotinic acid]
18 | < 500 | CC1(C)CN(c2ccc(F)c(Cl)c2)c2ncc(C(=O)N3CCN(c4ccc(CC(=O)O)cn4)CC3(C)C)nc21 [Example 205, 2-(6-(4-(5-(3-chloro-4-fluorophenyl)-7,7-dimethyl-6,7-dihydro-5H-pyrrolo[2,3-b]pyrazine-2-carbonyl)-3,3-dimethylpiperazin-1-yl)pyridin-3-yl)acetic acid]
19 | < 500 | COCC1CC2(C1)CN(c1ccc(Cl)c(F)c1)c1ccc(C(=O)N3CCN(c4cc(C)c(C(=O)O)c(C)n4)CC3(C)C)nc12 (stereo not shown) [Example 225, 6-(4-(1′-(4-chloro-3-fluorophenyl)-3-(methoxymethyl)-1′,2′-dihydrospiro[cyclobutane-1,3′-pyrrolo[3,2-b]pyridine]-5′-carbonyl)-3,3-dimethylpiperazin-1-yl)-2,4-dimethylnicotinic acid]

Source: patent publication US20250320224A1 (DOMAIN THERAPEUTICS, priority 2022, published 2025)
